{"source": "patent US12605382B2", "about": "“Pharmaceutical composition for preventing, alleviating, or treating cancer containing 2,6-dichloro-4-(4-(4-hydroxycyclohexylamino)-7H- pyrrolo[2,3-d]pyrimidin-5-yl)phenol as active ingredient” (JBKLAB CO., LTD., priority 2021, dated 2026)", "key": {"[1]": {"system": "HepG2", "assay": "Clonogenic assay", "type": "cell-based", "details": "2.5 and 5 μM, 10 days", "procedure": "(§1) HepG2 and Hep3B were each seeded in 12-well plates at the density of 3×10^3 cells/well and cultured for 24 hours. Then, Sorafenib and the compound of Example 1 were treated thereto at 2.5 and 5 μM each and cultured for 10 days. Upon completion of the culture, the cells were washed with PBS, fixed with 37% formaldehyde, and stained with 0.01% crystal violet. After staining, the cells were washed with distilled water and the colonies of stained cells were photographed."}, "[2]": {"system": "Hep3B", "assay": "Clonogenic assay", "type": "cell-based", "details": "2.5 and 5 μM, 10 days", "procedure": "as §1"}, "[3]": {"system": "HepG2", "assay": "WST-8 cell viability assay, hepatocellular carcinoma cell line", "type": "cell-based", "procedure": "(§2) Specifically, the WST-8 assay to check the cell viability of HepG2 and Hep3B, which are hepatocellular carcinoma cell lines shown in FIGS. 7A-7C and 8A-8C, was performed as follows. HepG2 and Hep3B were each seeded in 96-well plates at the density of 5×10^3 cells/well and cultured for 24 hours. Then, Sorafenib and OPT-0139 were diluted stepwise at a twofold concentration and then treated to the plates at different concentrations, followed by culture for 24, 48, and 72 hours. […] of WST-8 solution was added to each well of the plate, and the absorbance was measured with a microplate reader using a 450 nm optical filter to measure the formazan produced by the reducing factors in living cells.\n(§3) Therefore, the number of living cells could be measured by measuring absorbance."}, "[4]": {"system": "Hep3B", "assay": "WST-8 cell viability assay, hepatocellular carcinoma cell line", "type": "cell-based", "procedure": "as §2, §3"}, "[5]": {"system": "MDA-MB-231", "assay": "Cell viability assay (WST-8), TNBC cell line", "type": "cell-based, human", "details": "dose dependently", "procedure": "An experiment was performed to confirm the growth inhibitory effect of the compound of Example 1, the active ingredient of the pharmaceutical composition of the present invention, on breast cancer cell lines through cell viability assay.\nSpecifically, the cell viability assay was performed as follows. BT20, a human-derived breast cancer cell line, and MDA-MB-231, a TNBC cell line, were each seeded in 96-well plates at the density of 5×10^3 cells/well and cultured for 24 hours. Then, I-bet 762 and the compound of Example 1 were treated thereto at different concentrations and cultured for 48 hours. At the end of the culture, 100 μl of WST-8 solution was added to each well of the plate, and the absorbance was measured with a microplate reader using a 450 nm optical filter to measure the formazan produced by the reducing factors in living cells.\nFIGS. 4A-4C show the cell viability of MDA-MB-231, MDA-MB-453, and BT-20 after 24 hours of treatment with the compound of Example 1. As shown in FIGS. 4A-4C, it was confirmed that the cell viability was suppressed not only in general breast cancer cell lines, but also in TNBC cell lines dose dependently."}}, "data": [{"smiles": "Oc1c(Cl)cc(-c2c[nH]c3ncnc(N[C@H]4CC[C@H](O)CC4)c23)cc1Cl", "note": "[Example 1, (trans)-2,6-dichloro-4-(4-(4-hydroxycyclohexylamino)-7H-pyrrolo[2,3-d]pyrimidin-5-yl)phenol]", "values": [{"measurement": "number of colonies, treated vs not treated", "setting": "[1]", "result": "clear difference in the number of colonies"}, {"measurement": "number of colonies, treated vs not treated", "setting": "[2]", "result": "clear difference in the number of colonies"}, {"measurement": "effect on cell viability compared to Sorafenib", "setting": "[3]", "result": "remarkable effect compared to Sorafenib"}, {"measurement": "cell viability", "setting": "[3]; 24, 48 and 72 hours", "result": "decreased the cell viability dose and time dependently"}, {"measurement": "effect on cell viability compared to Sorafenib", "setting": "[4]", "result": "remarkable effect compared to Sorafenib"}, {"measurement": "cell viability", "setting": "[4]; 24, 48 and 72 hours", "result": "decreased the cell viability dose and time dependently"}, {"measurement": "cell viability", "setting": "[5]; MDA-MB-231, 24 hours", "result": "suppressed"}, {"measurement": "cell viability", "setting": "[5]; MDA-MB-231, 48 hours", "result": "inhibited the cell viability"}]}]}
